Experimental findings from US12370463B2, “Continuous-flow, well mixed, microfluidic crystallization device for screening polymorphs, morphologies and crystallization kinetics at controlled supersaturation” (THE BOARD OF TRUSTEES OF THE UNIVERSITY OF ILLINOIS, priority 2019, dated 2025) are described below.

Structures are written as SMILES.

Holding throughout (type): physicochemical
A short description of data set [1]: Polymorph and morphology screening of L-histidine in a batch 96 well plate, single injection. An excerpt:
(§1) With eight different microfluidic mixers accommodated on a single chip, eight different supersaturations were studied for polymorph and morphology screening of L-histidine. The results of the continuous flow microfluidic crystallizer were further compared with a batch 96 well plate system with single injection of the solutions in a 96 well plate system. Supersaturation adjustments were done by either changing the initial concentration of the API solution and maintaining a constant ratio for the solvent and antisolvent (1:1) or varying the ratios of two mixing streams for constant initial concentration of API in the solvent. Ratios of solvent and antisolvent were controlled by controlling the flowrates of each stream, respectively.
A low supersaturation degree existed in the wells D, C, and H, where supersaturation was respectively 1.74, 1.14 and 1.15. For a medium range of the supersaturations, well B with S=2.28 and well G with S=2 were evaluated. The other three remaining wells, A, E and F represents the high supersaturation range with S=2.57, […], 3.14 respectively. Identical supersaturations for wells A to H were applied to a batch 96 well plate and optical images were collected after 5 and 30 minutes and shown in the micrographs A2 to H2 and A4 to H4.
In order to measure the growth rate for polymorphs of L-histidine at different supersaturations, time-lapsed images of each sample were taken each 60, 120 or 300 seconds after the crystals were first observed within the crystallization zone. […] To confirm the crystal faces, the crystallography of the polymorph B was imported into WINXMORPH and 3 final models were simulated for existing form B in the samples. The growth rate measurements of the form A crystals, however was done by measuring the distance between the two longest faces due to the significant aspect ratio of the two dominant faces of this crystal form. Using MATLAB (MATLAB 9.3, The MathWorks Inc.) the ratio of the polymorphic form A was measured for the eight samples in both continuous flow crystallizer as well as the batch 96 well plate system. […]

The nature of data set [2]: Polymorph and morphology screening of L-histidine by antisolvent crystallization in the continuous-flow multi-well microfluidic mixer. The following applies: for polymorphic form obtained: water solvent, ethanol antisolvent, room temperature. How it is done:
The L-histidine crystals were formed at room temperature with water as the solvent and ethanol as the antisolvent, wherein the microfluidic system was configured to have a cyclone-shaped geometry.
The multi-well microfluidic mixer device was placed on a temperature-controlled stage of the optical microscope (Olympus BX53M, Olympus America Inc.). A saturated solution of L-histidine in water was prepared for the solubility measurement experiment at room temperature.
Eight different syringes were filled with solutions of L-histidine in the water at known concentrations as the source of solvent streams and the other eight syringes were filled with ethanol as antisolvent streams. Syringes were then inserted into 4 programmed syringe pumps (NE-4000, New Era Pump System Inc.). Inlets were connected to one-way microfluidic check valves to prevent backflow inside the channels.
All the microscopic images were recorded with a built-in color camera (LC 30, Olympus America Inc.) using reflected light mode. Capturing time-lapsed images and the growth rate analysis was performed for different samples. Further, these images were processed through MATLAB (MATLAB 9.3, The MathWorks Inc.) for form percentage measurements. L-histidine has two polymorphic form with different crystal habits reported in the literature.
After benchmarking the merged inlet geometry and observing the consistency between the two discussed geometry, the multiwell screening system 10 generally shown in FIG. 4 and using the eight microfluidic chambers 100 having the merged inlet geometry of FIG. 5 was used to perform a parallel screening of L-histidine.
as §1
L-histidine with the two polymorphic forms of form A (stable) and form B (metastable) was selected for the parallel screening. The disclosed microfluidic system provides for the instantaneous, in-situ analysis of the polymorphic change. The studied supersaturations were divided into three regions of low, medium and high supersaturations to understand the effect of the supersaturation ratio on the polymorphic form ratios. […]

Data set [3] in a line: Antisolvent crystallization of o-ABA in the microfluidic mixer, merged and separated inlet designs. The source says:
The crystals were formed at room temperature using ethanol as solvent and water as antisolvent. The microfluidic system was configured to have a cyclone-shaped geometry.
The microfluidic device was placed on the temperature-controlled stage of the optical microscope (Olympus BX53M, Olympus America Inc.). The o-ABA dissolved in ethanol and pure water was pumped separately into the microfluidic device using programmed syringe pumps (NE-4000, New Era Pump System Inc.). The flow rates of the o-ABA-ethanol solution and pure water were adjusted to achieve the desired supersaturations (S=1.2, 1.9, and 2.5), which were determined using the solubility curve of form I of o-ABA crystals. The inlets of the microfluidic device were connected with one-way check valves to avoid backflow from the mixer. The time-lapse images of the crystallization compartment were recorded using a built-in color camera (LC 30, Olympus America Inc.) of the optical microscope under the reflected light mode, which are also processed using MATLAB (MATLAB 9.3, The MathWorks Inc.) to measure growth rates and particle size distribution. The polymorphs of o-ABA at different supersaturations (S=1.2, 1.9, and 2.5) were identified using (i) distinct morphological features, such as form I having a prismatic morphology whereas form II has a needle-like morphology, and (ii) X-ray diffraction (XRD) experiments on a Bruker DISCOVER diffractometer with Cu Kα radiation.
The antisolvent crystallization of o-ABA was studied with a merged inlet design (FIG. 5) and results were compared with a separated inlet design. FIG. 11, panels A-H show the micrographs of the samples obtained from antisolvent crystallization of o-ABA in the ethanol-water mixture at two different supersaturations (S=1.2 and S=1.9). The relative relationship between the form and morphology of o-ABA allows for instant detection of each polymorph with the in-situ analysis.

`N[C@@H](Cc1c[nH]cn1)C(=O)O` [L-histidine]: the crystal size distribution result in data set [1] (batch 96 well plate) was “wide range of size distribution”; in data set [2] (continuous microfluidic mixer) it was “more uniform and have a narrower size distribution”. For the same compound, the polymorphic form obtained entry in data set [1] (high supersaturation, batch 96 well plate) is “a mixture of both polymorphic forms”; in data set [2] (supersaturations below 2.3 (low and medium ranges)), “a mixture of forms A and B”; in data set [2] (supersaturations higher than 2.3) it was “only crystallizes in form B”. In addition, the “growth rates of crystals over the time of the measurements” value in data set [1] (identical samples in the batch system) is on record as “decrease significantly”. In data set [2] (continuous microfluidic mixer, time-lapsed images), the “growth rates of crystals at similar supersaturation” value was “almost constant”.

Turning to `Nc1ccccc1C(=O)O` [o-ABA, o-aminobenzoic acid], the polymorphic form obtained entry in data set [3] (S=1.9, merged inlets geometry) is reported as “metastable form II was obtained”; in data set [3] (lower supersaturations, ethanol-water mixture) it was “crystals of polymorphic form I are obtained”. The “polymorphic transformation during the experiment” value in data set [3] (S=1.9, merged inlets geometry, constant supersaturation) is given as “did not transform to the stable form”.
